Data on 41 compounds can be found in patent publication US11584765B2 (priority 2017, dated 2023).

In the assay the test system is C57BL/6 mice. Nature of the assay: animal or person. In kind it is in vivo. The conditions noted are these: Mus musculus, sc, 0.5 h, s.c. administration, 30 min, 55° C. water, read-out: ED50 (mg/kg) at 30 min on C57BL/6 mice in Warm-water Tail-flick Test.

Each structure is given as a SMILES string.

In the case of `COC(=O)C1(CCc2ccccc2)CCN(Cc2ccc(NC(C)=O)cc2)C1` (centres unmarked) [Compound 28, methyl 1-(4-acetamidobenzyl)-3-phenethylpyrrolidine-3-carboxylate], the ED50 is under 10 mg/kg. As to `COC(=O)C1(CCc2ccccc2)CCCN(Cc2ccc(NC(C)=O)cc2)C1` (centres unmarked) [Compound 29, methyl 1-(4-acetamidobenzyl)-3-phenethylpiperidine-3-carboxylate], the ED50 was over 10 mg/kg. In the case of `CC(=O)Nc1ccc(CN2CCC(CCc3ccccc3)(c3ccccn3)C2)cc1` (centres unmarked) [Compound 30, N-(4-((3-phenethyl-3-(pyridin-2-yl)pyrrolidin-1-yl)methyl)phenyl)acetamide], the ED50 is over 10 mg/kg. As to `CC(=O)Nc1ccc(NN2CCC(CCc3ccccc3)(c3ccccn3)CC2)cc1` [Compound 31, N-(4-(4-phenethyl-4-(pyridin-2-yl)piperidin-1-ylamino)phenyl)acetamide], the ED50 is over 10 mg/kg. As for `CC(=O)Nc1ccc(CN2CCCC(CCc3ccccc3)(c3ccccn3)C2)cc1` (centres unmarked) [Compound 32, N-(4-((3-phenethyl-3-(pyridin-2-yl)piperidin-1-yl)methyl)phenyl)acetamide], the ED50 was over 10 mg/kg. As for `CC(=O)Nc1ccc(CN2CCC(/C=C/c3ccccc3)(c3ccccn3)CC2)cc1` [Compound 33, (E)-N-(4-((4-(pyridin-2-yl)-4-styrylpiperidin-1-yl)methyl)phenyl)acetamide], the ED50 is over 10 mg/kg.

Take `CC(=O)Nc1ccc(CN2CCC(CCc3ccccc3)(c3nccn3C)CC2)cc1` [Compound 34, N-(4-((4-(1-methyl-1H-imidazol-2-yl)-4-phenethylpiperidin-1-yl)methyl)phenyl)acetamide]: the ED50 is over 10 mg/kg. As for `CC(=O)NCCCCN1CCC(CCc2ccccc2)(c2ccccn2)CC1` [Compound 35, N-(4-(4-phenethyl-4-(pyridin-2-yl)piperidin-1-yl)butyl)acetamide], the ED50 was over 10 mg/kg.

`CC(=O)NCCN1CCC(CCc2ccccc2)(c2ccccn2)CC1` [Compound 36, N-(2-(4-phenethyl-4-(pyridin-2-yl)piperidin-1-yl)ethyl)acetamide]: the ED50 is over 10 mg/kg. For `CC(=O)Nc1ccc(CN2CCC(CCc3ccccc3)(c3cccc(F)n3)CC2)cc1` [Compound 37, N-(4-((4-(6-fluoropyridin-2-yl)-4-phenethylpiperidin-1-yl)methyl)phenyl)acetamide], the ED50 was over 10 mg/kg.

As to `COc1ccc(C2(CCc3ccccc3)CCN(Cc3ccc(NC(C)=O)cc3)CC2)nc1` [Compound 38, N-(4-((4-(5-methoxypyridin-2-yl)-4-phenethylpiperidin-1-yl)methyl)phenyl)acetamide], the ED50 is over 10 mg/kg. In the case of `CC(=O)Nc1ccc(CN2CCC(CCc3ccccc3)(Cc3ccccn3)CC2)cc1` [Compound 39, N-(4-((4-phenethyl-4-(pyridin-2-ylmethyl)piperidin-1-yl)methyl)phenyl)acetamide], the ED50 is over 10 mg/kg. With `CC(=O)Nc1ccc(CN2CCC(/C=C/c3ccccc3)(c3ccncc3)CC2)cc1` [Compound 40, (E)-N-(4-((4-(pyridin-4-yl)-4-styrylpiperidin-1-yl)methyl)phenyl)acetamide] the figure was over 10 mg/kg; with `Nc1ccc(CN2CCC(CCc3ccccc3)(c3ccccn3)CC2)cc1` [Compound 41, 4-((4-phenethyl-4-(pyridin-2-yl)piperidin-1-yl)methyl)aniline], over 10 mg/kg. Turning to `CC(=O)Nc1ccc(CN2CCC(C(=O)c3ccccc3)(c3ccccn3)CC2)cc1` [Compound 42, N-(4-((4-benzoyl-4-(pyridin-2-yl)piperidin-1-yl)methyl)phenyl)acetamide], the ED50 is over 10 mg/kg.

For the compound `CC(=O)N(C)c1ccc(CN2CCC(CCc3ccccc3)(c3ncc[nH]3)CC2)cc1` [Compound 43, N-(4-((4-(1H-imidazol-2-yl)-4-phenethylpiperidin-1-yl)methyl)phenyl)-N-methylacetamide], the ED50 was over 10 mg/kg.

Consider `CC(=O)Nc1ccc(CN2CCC(/C=C/c3ccccn3)(c3ccccn3)CC2)cc1` [Compound 44, (E)-N-(4-((4-(pyridin-2-yl)-4-(2-(pyridin-2-yl)vinyl)piperidin-1-yl)methyl)phenyl)acetamide], for which the ED50 was over 10 mg/kg. Regarding `CC(=O)Nc1ccc(CN2CCC(c3ccccn3)(C(O)c3ccccc3)CC2)cc1` (centres unmarked) [Compound 45, N-(4-((4-(hydroxy(phenyl)methyl)-4-(pyridin-2-yl)piperidin-1-yl)methyl)phenyl)acetamide], the ED50 is over 10 mg/kg. For `CC(=O)Nc1ccc(CN2CCC(/C=C/Cc3ccccc3)(c3ccccn3)CC2)cc1` [Compound 46, (E)-N-(4-((4-(3-phenylprop-1-enyl)-4-(pyridin-2-yl)piperidin-1-yl)methyl)phenyl)acetamide], the ED50 was over 10 mg/kg. With `CC(=O)Nc1ccc(CN2CCC(/C=C/c3ccccc3)(c3cccc(F)n3)CC2)cc1` [Compound 47, (E)-N-(4-((4-(6-fluoropyridin-2-yl)-4-styrylpiperidin-1-yl)methyl)phenyl)acetamide] the figure was over 10 mg/kg; with `CC(=O)Nc1ccc(CN2CCC(/C=C/c3ccccc3)(c3cccnc3)CC2)cc1` [Compound 48, (E)-N-(4-((4-(pyridin-3-yl)-4-styrylpiperidin-1-yl)methyl)phenyl)acetamide], over 10 mg/kg. Turning to `C=CCC1(c2ccccn2)CCN(Cc2ccc(NC(C)=O)cc2)CC1` [Compound 49, N-(4-((4-allyl-4-(pyridin-2-yl)piperidin-1-yl)methyl)phenyl)acetamide], the ED50 is over 10 mg/kg. With `O=C(Nc1ccc(CN2CCC(CCc3ccccc3)(c3ccccn3)CC2)cc1)C(F)(F)F` [Compound 50, 2,2,2-trifluoro-N-(4-((4-phenethyl-4-(pyridin-2-yl)piperidin-1-yl)methyl)phenyl)acetamide] the figure was over 10 mg/kg; with `CC(=O)Nc1ccc(CN2CCC(CCc3ccccc3)(c3ccccn3)CC2)cc1F.Cl` [Compound 52, N-(2-fluoro-4-((4-phenethyl-4-(pyridin-2-yl)piperidin-1-yl)methyl)phenyl)acetamide HCl], over 10 mg/kg. In the case of `CC(=O)Nc1ccc(CN2CCC(CCc3ccccc3)(c3ccccn3)CC2)c(F)c1` [Compound 53, N-(3-fluoro-4-((4-phenethyl-4-(pyridin-2-yl)piperidin-1-yl)methyl)phenyl)acetamide], the ED50 is over 10 mg/kg.

Regarding `CNC(=O)c1ccc(CN2CCC(CCc3ccccc3)(c3ccccn3)CC2)cc1` [Compound 54, N-methyl-4-((4-phenethyl-4-(pyridin-2-yl)piperidin-1-yl)methyl)benzamide], the ED50 was over 10 mg/kg. For `NC(=O)c1ccc(CN2CCC(CCc3ccccc3)(c3ccccn3)CC2)cc1` [Compound 55, 4-((4-phenethyl-4-(pyridin-2-yl)piperidin-1-yl)methyl)benzamide], the ED50 is over 10 mg/kg. `CC(=O)Nc1ccc(CN2CCC(CCc3ccccc3)(CN(C)C)CC2)cc1` [Compound 56, N-(4-((4-((dimethylamino)methyl)-4-phenethylpiperidin-1-yl)methyl)phenyl)acetamide]: the ED50 was over 10 mg/kg. With `CC(=O)Nc1ccc(CN2CCC(CCc3ccccc3)(CN(C)C(C)=O)CC2)cc1` [Compound 57, N-((1-(4-acetamidobenzyl)-4-phenethylpiperidin-4-yl)methyl)-N-methylacetamide] the figure was over 10 mg/kg; with `CC(=O)Nc1ccc(CN2CCC(CCc3ccccc3)(COC(C)=O)CC2)cc1` [Compound 58, (1-(4-acetamidobenzyl)-4-phenethylpiperidin-4-yl)methyl acetate], over 10 mg/kg.

With `CCOCC1(CCc2ccccc2)CCN(Cc2ccc(NC(C)=O)cc2)CC1` [Compound 59, N-(4-((4-(ethoxymethyl)-4-phenethylpiperidin-1-yl)methyl)phenyl)acetamide], the ED50 was under 10 mg/kg. On to `CC(=O)Nc1ccc(CN2CCC(CCc3ccccc3)(C(N)=O)CC2)cc1` [Compound 60, 1-(4-acetamidobenzyl)-4-phenethylpiperidine-4-carboxamide], for which the ED50 was over 10 mg/kg. With `Oc1ccc(CN2CCC(CCc3ccccc3)(c3ccccn3)CC2)cc1` [Compound 61, 4-((4-phenethyl-4-(pyridin-2-yl)piperidin-1-yl)methyl)phenol], the ED50 is over 10 mg/kg.

As for `COc1ccc(C2(/C=C/c3ccccc3)CCN(Cc3ccc(NC(C)=O)cc3)CC2)nc1` [Compound 62, (E)-N-(4-((4-(5-methoxypyridin-2-yl)-4-styrylpiperidin-1-yl)methyl)phenyl)acetamide], the ED50 was over 10 mg/kg. With `COc1ccc(C2(/C=C\c3ccccc3)CCN(Cc3ccc(NC(C)=O)cc3)CC2)nc1` [Compound 63, (Z)-N-(4-((4-(5-methoxypyridin-2-yl)-4-styrylpiperidin-1-yl)methyl)phenyl)acetamide], the ED50 is over 10 mg/kg. Take `CS(=O)(=O)N(c1ccc(CN2CCC(CCc3ccccc3)(c3ccccn3)CC2)cc1)S(C)(=O)=O` [Compound 64, N-(methylsulfonyl)-N-(4-((4-phenethyl-4-(pyridin-2-yl)piperidin-1-yl)methyl)phenyl)methane-sulfonamide]: the ED50 was over 10 mg/kg. In the case of `CNC(=O)C1(CCc2ccccc2)CCN(Cc2ccc(NC(C)=O)cc2)CC1` [Compound 65], the ED50 was over 10 mg/kg.

As to `CC(=O)Nc1ccc(CN2CCC(CCc3ccccc3)(C(=O)N(C)C)CC2)cc1` [Compound 66, 1-(4-acetamidobenzyl)-N,N-dimethyl-4-phenethylpiperidine-4-carboxamide], the ED50 is over 10 mg/kg. On to `CC(=O)NCC1(CCc2ccccc2)CCN(Cc2ccc(NC(C)=O)cc2)CC1` [Compound 67, N-((1-(4-acetamidobenzyl)-4-phenethylpiperidin-4-yl)methyl)acetamide], for which the ED50 is over 10 mg/kg. In the case of `CC(=O)Nc1ccc(CN2CCC(CO)(CCc3ccccc3)CC2)cc1` [Compound 68, N-(4-((4-(hydroxymethyl)-4-phenethylpiperidin-1-yl)methyl)phenyl)acetamide], the ED50 is over 10 mg/kg. With `CC(=O)Nc1ccc(CN2CCC(CCc3ccccc3)(C3CCCO3)CC2)cc1` (centres unmarked) [Compound 69, N-(4-((4-phenethyl-4-(tetrahydrofuran-2-yl)piperidin-1-yl)methyl)phenyl)acetamide] the figure was under 10 mg/kg.
